We go through 17 molecules from ChEMBL document CHEMBL3808337, “Rapid Discovery of Pyrido[3,4-d]pyrimidine Inhibitors of Monopolar Spindle Kinase 1 (MPS1) Using a Structure-Based Hybridization Approach” (J Med Chem, 2016).

Bounds are passed on as bounds.

Series [1] can be described thus: Drug metabolism in CD1 mouse liver microsomes at 10 uM after 30 mins by LCMS analysis. Format: ADME. The settings on record: read-out: Drug metabolism.
The nature of series [2]: Antiproliferative activity against human HCT116 cells assessed as cell viability after 72 hrs by MTT assay. The class given is functional. Particulars: HCT-116, 72 h. A general note: Tetrazolium dyes change colour on reduction, which living cells bring about.
The target in another series is CDK2/Cyclin A2 (Homo sapiens, UniProt P24941).
The target of another series is Cytochrome P450 2C9 (Homo sapiens, UniProt P11712). Kind of series: Inhibition of CYP2C9 (unknown origin). The class given is ADME.
The target in another series is Cytochrome P450 2D6 (Homo sapiens, UniProt P10635).
In another series the target is T1, Cytochrome P450 1A2 (Homo sapiens, UniProt P05177).
T1 sequence (P05177 whole entry): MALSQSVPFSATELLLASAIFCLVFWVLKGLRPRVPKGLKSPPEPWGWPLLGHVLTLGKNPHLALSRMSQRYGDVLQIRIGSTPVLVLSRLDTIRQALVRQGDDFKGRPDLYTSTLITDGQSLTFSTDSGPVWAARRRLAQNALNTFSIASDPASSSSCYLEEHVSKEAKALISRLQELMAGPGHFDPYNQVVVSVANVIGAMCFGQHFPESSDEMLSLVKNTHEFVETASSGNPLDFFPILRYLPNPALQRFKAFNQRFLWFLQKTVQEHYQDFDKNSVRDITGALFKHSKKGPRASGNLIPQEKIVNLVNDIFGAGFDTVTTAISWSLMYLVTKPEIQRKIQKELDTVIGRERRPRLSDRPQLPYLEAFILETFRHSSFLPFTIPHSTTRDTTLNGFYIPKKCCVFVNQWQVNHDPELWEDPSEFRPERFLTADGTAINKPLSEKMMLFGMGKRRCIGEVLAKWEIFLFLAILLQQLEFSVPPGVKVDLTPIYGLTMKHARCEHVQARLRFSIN
Kind of series: Inhibition of CYP1A2 (unknown origin). Format: ADME.

For the next series, the target named is Cytochrome P450 2C19 (Homo sapiens, UniProt P33261). The experiment in a line: Inhibition of CYP2C19 (unknown origin). Format: ADME.
The target of the next series is Cytochrome P450 3A4 (Homo sapiens, UniProt P08684).
Cytochrome P450 3A4, sequence (P08684 whole entry): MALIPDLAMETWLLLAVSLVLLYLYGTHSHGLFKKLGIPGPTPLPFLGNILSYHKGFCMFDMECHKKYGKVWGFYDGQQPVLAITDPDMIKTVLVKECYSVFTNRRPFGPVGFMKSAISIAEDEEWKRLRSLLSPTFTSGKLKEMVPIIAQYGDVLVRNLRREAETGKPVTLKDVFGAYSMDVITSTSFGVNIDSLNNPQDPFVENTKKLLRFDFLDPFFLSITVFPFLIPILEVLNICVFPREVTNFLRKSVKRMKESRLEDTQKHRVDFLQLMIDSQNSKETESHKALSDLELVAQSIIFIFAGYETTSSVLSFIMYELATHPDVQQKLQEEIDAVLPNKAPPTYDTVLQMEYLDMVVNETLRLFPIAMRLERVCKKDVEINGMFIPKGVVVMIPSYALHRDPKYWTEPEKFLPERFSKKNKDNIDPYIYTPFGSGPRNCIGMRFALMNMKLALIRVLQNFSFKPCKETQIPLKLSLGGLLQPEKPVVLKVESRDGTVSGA

Cytochrome P450 2D6, sequence (P10635 whole entry): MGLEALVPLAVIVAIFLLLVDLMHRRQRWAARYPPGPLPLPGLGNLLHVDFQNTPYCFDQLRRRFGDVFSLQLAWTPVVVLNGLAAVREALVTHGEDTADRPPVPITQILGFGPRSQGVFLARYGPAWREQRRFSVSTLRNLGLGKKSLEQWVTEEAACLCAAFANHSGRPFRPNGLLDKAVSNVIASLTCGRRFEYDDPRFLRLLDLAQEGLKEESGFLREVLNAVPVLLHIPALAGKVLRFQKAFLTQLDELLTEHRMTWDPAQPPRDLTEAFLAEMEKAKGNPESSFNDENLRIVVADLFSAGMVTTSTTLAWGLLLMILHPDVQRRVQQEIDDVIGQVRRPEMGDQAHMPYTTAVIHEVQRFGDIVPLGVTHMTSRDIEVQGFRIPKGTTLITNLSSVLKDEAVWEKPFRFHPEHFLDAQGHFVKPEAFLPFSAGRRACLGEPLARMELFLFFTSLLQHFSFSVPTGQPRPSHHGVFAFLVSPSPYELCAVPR
Cytochrome P450 2C19, sequence (P33261 whole entry): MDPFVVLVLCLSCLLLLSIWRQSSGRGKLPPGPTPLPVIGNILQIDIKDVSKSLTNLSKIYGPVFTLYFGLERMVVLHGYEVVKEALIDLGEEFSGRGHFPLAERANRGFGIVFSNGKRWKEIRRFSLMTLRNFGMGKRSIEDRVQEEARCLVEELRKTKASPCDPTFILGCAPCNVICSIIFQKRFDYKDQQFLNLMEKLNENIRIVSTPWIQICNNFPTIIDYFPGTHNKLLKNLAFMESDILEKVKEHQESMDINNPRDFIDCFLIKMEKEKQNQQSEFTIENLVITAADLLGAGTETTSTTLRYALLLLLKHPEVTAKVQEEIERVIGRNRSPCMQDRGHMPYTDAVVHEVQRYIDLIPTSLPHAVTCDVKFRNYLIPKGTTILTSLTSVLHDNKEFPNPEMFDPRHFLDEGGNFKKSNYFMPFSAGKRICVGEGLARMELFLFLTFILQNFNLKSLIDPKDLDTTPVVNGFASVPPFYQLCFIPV
Cytochrome P450 2C9, sequence (P11712 whole entry): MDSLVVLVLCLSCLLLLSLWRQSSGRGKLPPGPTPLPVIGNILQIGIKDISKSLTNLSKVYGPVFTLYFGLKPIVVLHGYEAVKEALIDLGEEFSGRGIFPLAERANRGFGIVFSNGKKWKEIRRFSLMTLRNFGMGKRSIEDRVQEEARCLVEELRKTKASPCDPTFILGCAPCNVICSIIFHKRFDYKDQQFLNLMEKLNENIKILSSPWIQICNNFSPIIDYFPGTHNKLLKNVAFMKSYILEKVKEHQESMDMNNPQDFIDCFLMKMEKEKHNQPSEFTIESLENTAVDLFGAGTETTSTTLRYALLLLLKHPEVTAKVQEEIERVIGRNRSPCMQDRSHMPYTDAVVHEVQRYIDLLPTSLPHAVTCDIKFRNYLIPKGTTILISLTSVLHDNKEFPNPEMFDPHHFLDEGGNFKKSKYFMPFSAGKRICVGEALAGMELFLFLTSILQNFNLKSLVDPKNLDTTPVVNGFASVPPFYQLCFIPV

Take `COc1cc(-c2cnn(C)c2)ccc1Nc1ncc2ccnc(-c3cnn(C)c3)c2n1`: in series [1], the metabolised at 0.5 h, 10 µM worked out at 73%. Turning to `COc1cc(-c2cnn(C)c2)ccc1Nc1ncc2ccnc(N3CCCC3)c2n1`, in series [1], the metabolised at 0.5 h, 10 µM was 64%. Moreover, in series [2], the GI50 amounted to 470 nM. Take `CCOc1cc(-c2cnn(C)c2)ccc1Nc1ncc2ccnc(-c3cnn(C)c3)c2n1`: the metabolised at 0.5 h, 10 µM in series [1] is 45%. The molecule further came in with an IC50 against CDK2/Cyclin A2 above 45000 nM. With `COc1cc(-c2cnn(C)c2)ccc1Nc1ncc2ccnc(NCC(C)C)c2n1`, the metabolised at 0.5 h, 10 µM in series [1] turned out to be 66%. Further, the GI50 in series [2] amounted to 1100 nM. For the molecule `COc1cc(-c2cnn(C)c2)ccc1Nc1ncc2ccnc(SC3CCCCC3)c2n1`, the IC50 at CDK2/Cyclin A2 is above 10000 nM. In the case of `COc1cc(-c2cnn(C)c2)ccc1Nc1ncc2ccnc(NCC3CC3)c2n1`, in series [1], the metabolised at 0.5 h, 10 µM worked out at 33%. In addition, the GI50 in series [2] is 320 nM. Consider `COc1cc(-c2cnn(C)c2)ccc1Nc1ncc2ccnc(-c3ccccc3)c2n1`, for which the metabolised at 0.5 h, 10 µM in series [1] came to 40%. Take `CC(C)Oc1cc(-c2cnn(C)c2)ccc1Nc1ncc2ccnc(-c3cnn(C)c3)c2n1`: the metabolised at 0.5 h, 10 µM in series [1] was found to be 45%. The molecule further displayed an IC50 at CDK2/Cyclin A2 above 10000 nM. As to `COc1cc(-c2cnn(C)c2)ccc1Nc1ncc2ccnc(C3CC3)c2n1`, the metabolised at 0.5 h, 10 µM in series [1] came to 51%. Regarding `COc1ccc(Nc2cc3c(-c4cnn(C)c4)cccc3cn2)cc1`, half-maximal inhibition on CDK2/Cyclin A2 (IC50) was put at 1220 nM.

Consider `COc1cc(-c2cnn(C)c2)ccc1Nc1ncc2ccnc(NCC(C)(C)C)c2n1`, for which the metabolised at 0.5 h, 10 µM in series [1] stood at 31%. The GI50 in series [2] stood at 340 nM.

Take `COc1cc(-c2cnn(C)c2)ccc1Nc1ncc2ccnc(N[C@H](C)C(C)(C)C)c2n1`: in series [1], the metabolised at 0.5 h, 10 µM was found to be 25%. Moreover, the GI50 in series [2] turned out to be 220 nM. `COc1cc(-c2cnn(C)c2)ccc1Nc1ncc2ccnc(NC3CCCCC3)c2n1`: in series [1], the metabolised at 0.5 h, 10 µM amounted to 22%. For the same molecule, at CDK2/Cyclin A2, the midpoint of inhibition, the IC50, lay at 190 nM and the Ki amounted to 100 nM. Further, the 50% growth inhibitory concentration (GI50) in series [2] amounted to 120 nM. Consider `COCCOc1cc(-c2cnn(C)c2)ccc1Nc1ncc2ccnc(-c3cnn(C)c3)c2n1`, for which, in series [1], the metabolised at 0.5 h, 10 µM was 59%. At CDK2/Cyclin A2, `COc1ccc(Nc2cc3c(-c4ccco4)cccc3cn2)cc1` displayed an IC50 of 31100 nM.

Consider `Cn1cc(-c2cc3cnc(Nc4ccc(-c5cncn5C)cc4Cl)cc3n2C(=O)OC(C)(C)C)cn1`, for which the half-inhibitory concentration (IC50) against Cytochrome P450 2C9, on Cytochrome P450 2D6, at Cytochrome P450 1A2, at Cytochrome P450 2C19 and on Cytochrome P450 3A4 was below 1000 nM in each case. For `Cc1cc(-c2cnn(C)c2)ccc1Nc1ncc2ccnc(-c3cnn(C)c3)c2n1`, the metabolised at 0.5 h, 10 µM in series [1] was found to be 63%.

As usually defined, the GI50 is the concentration giving 50% growth inhibition. For orientation: IC50 means the concentration needed to halve the response being measured. One may read the Ki as the equilibrium dissociation constant of an inhibitor or competing ligand from its target.
